In patent publication US20230248705A1, “ADMINISTRATION OF MODULATORS OF 5-HT AND / OR AMPA RECEPTORS FOR TREATING NEUROLOGICAL CONDITIONS” (THE ROYAL INSTITUTION FOR THE ADVANCEMENT OF …, priority 2020, published 2023):
“Also recorded” adds a separate entry of the source.

Assays:
male C57BL/6J mice [1] = test: direct social interaction test (DSI); assay type: in vivo
Description: (§1) The increase in social interaction was observed 24 hours after the last injection in two validated paradigms of social behavior: the direct social interaction test (FIG. 1A) and the three-chamber test (FIG. 1B).

male C57BL/6J mice [2] = test: three chambers test (TCT); assay type: in vivo; conditions: repeated LSD 25-35 μg/kg per day for 7 days; vs veh; FIG. 1B
Description: as §1

dopamine D2 receptor = dopamine D2 receptor (Homo sapiens, UniProt P14416); conditions: read-out: affinity (ki), partial agonist; cited from earlier work
mice [3] = test: light-dark box test after chronic restraint stress; assay type: in vivo; conditions: repeated LSD 30 μg/kg, FIG. 2A
Description: (§2) A paradigm of repeated stress-induced anxiety-like behavior was employed, in order to mimic anxious states induced by chronic stressor exposure in humans. Chronic restraint stress was chosen for its ability to reliably and relatively quickly induce anxiety-like behavior. Briefly, mice were placed in well ventilated plexiglass restrainers for 2 hours per day, for 15 days, then returned to a horizontal resting position on an open bench. During the procedure, the animals had no access to food and water. Control mice were left undisturbed in their home cage. This regimen duration was chosen given that, in pilot experiments, it represented the minimum duration of restraint stress which exacerbated anxiety-like behavior.
For the light-dark box test, an apparatus consisting of a light, open topped, opaque, plexiglass box (27×27×30 cm) connected to a dark, closed topped, opaque, plexiglass box (18×27×30 cm) was used. The light and dark boxes were connected by a small opening (12×5 cm) which allowed the mouse to cross between the two compartments. The light box was illuminated by a 100 W desk lamp. Each mouse was placed in the illuminated box and observed for 5 min. When the four paws were in the light box, the mouse was considered to be in the light compartment. […]

[4] = system: mammalian target of rapamycin complex (mTOR); test: mTOR phosphorylation in the mPFC; assay type: in vivo, mice
[5] = system: glutamatergic and serotonergic neurotransmission in the medial prefrontal cortex (mPFC) and in the DRN; test: electrophysiological experiments in mPFC and DRN; assay type: in vivo, mice; conditions: repeated regimen of LSD
[6] = system: 5-HT neurons originating in the Dorsal Raphe Nucleus (DRN); conditions: doses 5-30 μg/kg; mice; cited from earlier work
dopaminergic system = conditions: doses 30-120 μg/kg, 60-120 μg/kg; leading to psychotic-like hallucinogenic symptoms; cited from earlier work
healthy volunteers = conditions: cited from earlier work
mice [7] = test: head-twitches after acute dose; conditions: FIG. 3
mice [8] = test: novelty suppressed feeding test after chronic restraint stress; assay type: in vivo; conditions: repeated LSD 30 μg/kg; chronic restraint stress mice vs vehicle-treated stressed mice; FIG. 2B
Description: as §2
This procedure was used to measure neohypophagia (the anxiety-induced inhibition of feeding upon exposure to a novel environment). This test is used to validate the acute effects of putative anxiolytics. Mice were food-deprived for 48-hours; subsequently, each mouse was placed in a brightly illuminated (100 W, 350 Ix) open arena (40×40 cm, white-painted floor with walls 30 cm high), containing standard chow (3 pellets) in the center of the arena. The latency to initiate feeding (in seconds) was used as an index of anxiety-like behavior. […]

dopamine D2 receptor, sequence (P14416 whole entry, species assumed): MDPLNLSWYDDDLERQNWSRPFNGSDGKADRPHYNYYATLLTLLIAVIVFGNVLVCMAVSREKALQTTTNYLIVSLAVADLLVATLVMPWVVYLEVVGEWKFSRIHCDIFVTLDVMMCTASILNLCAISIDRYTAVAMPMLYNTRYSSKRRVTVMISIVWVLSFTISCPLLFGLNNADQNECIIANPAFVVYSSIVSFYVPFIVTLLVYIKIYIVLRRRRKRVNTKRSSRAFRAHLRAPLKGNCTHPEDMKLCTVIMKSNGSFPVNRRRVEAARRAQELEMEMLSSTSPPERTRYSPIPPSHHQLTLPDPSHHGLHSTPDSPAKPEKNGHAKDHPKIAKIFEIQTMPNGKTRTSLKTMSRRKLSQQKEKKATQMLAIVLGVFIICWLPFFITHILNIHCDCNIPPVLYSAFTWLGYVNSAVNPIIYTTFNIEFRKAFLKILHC

For `CCN(CC)C(=O)[C@@H]1C=C2c3cccc4[nH]cc(c34)C[C@H]2N(C)C1` [LSD, Lysergic acid diethylamide], the social interaction (male C57BL/6J mice [1]; lower doses 5, 10 μg/kg for 3 days) was “non-significant increase in social interaction”, the “social interaction / interaction time toward the unfamiliar mouse” value (male C57BL/6J mice [1]; repeated LSD 25-35 μg/kg per day for 7 days, 24 hours after last injection, vs veh (saline), FIG. 1A) was “increased social interaction; also recorded: increases interaction time” and the social behavior (male C57BL/6J mice [1]; single administration, FIG. 1A) was “did not produce any effect on social behavior”. For the same compound, the “preference for social novelty / sniffing time toward a novel mouse” value (male C57BL/6J mice [2]) was “promoted the preference for the social novelty; also recorded: promotes preference for social novelty”, the Ki (dopamine D2 receptor) was 25 nM and the “anxiety-like behavior: number of transitions between light and dark compartments” value (mice [3]) was “prevents chronic stress-induced anxiety-like behavior; also recorded: number of entries similar to the control mice treated with the vehicle; also recorded: normalized the transition between the dark and the light compartment”. For the same compound, the “phosphorylation levels of mTOR” value [4] was “increased the phosphorylation levels”, the “glutamatergic and serotonergic neurotransmission” value [5] was “potentiates both glutamatergic and serotonergic neurotransmission” and the “activity of 5-HT neurons” value [6] was “decreasing the activity of 5-HT neurons”. The dopaminergic system activity (dopaminergic system) was “inhibit the dopaminergic system”, the “optimism, mood and trait openness” value (healthy volunteers; 2 weeks after LSD administration) was “increased optimism, mood and trait openness” and the “mood and social effects” value (healthy volunteers; after 200 μg of LSD) was “Positive mood changes and altruistic/positive social effects”. For the same compound, the social behavior (healthy volunteers; healthy volunteers) was “increase social behavior”, the “hallucinogenic effects (head-twitches)” value (mice [7]; acute (single) dose 15 μg/kg or less) was “did not provide hallucinogenic effects” and the “adverse events (hallucinations, head twitches)” value (mice [7]; acute (single) dose 30 μg/kg) was “produces adverse events”. For the same compound, the “adverse events (hallucinations, head twitches)” value (mice [7]; acute (single) dose 60 μg/kg) was “produces adverse events”, the “head twitches versus dose” value (mice [7]; as an acute (single) dose is increased) was “increase in head twitches” and the “anxiety-like behavior: latency to feed” value (mice [8]) was “prevents chronic stress-induced anxiety-like behavior; also recorded: reduced latency to feed; also recorded: decreased latency to feed”.
